Values of other authors as cited in patent US7087769B1, “Process for the preparation of cationic surfactants” (Laboratorios Miret, S.A., priority 2000, dated 2006).
Where two headings read alike, the source gives them in different places.

What was measured:
[1] = human beings
[2] = test system: Mycobacterium phlei
[3] = test system: Rhodotorula rubra
[4] = test system: Gliocadium virens
[5] = test system: Escherichia coli; settings: EP-A-0 749 960
[6] = test system: Salmonelly thyphimurium
[7] = test system: Bacillus subtilus
[8] = test system: Staphylococcus aureus; settings: EP-A-0 749 960
[9] = test system: Bacillus cereus spp. mycoide
[10] = test system: Serratia marcescens
[11] = test system: Listeria monocytogenes
[12] = test system: Chaetonium globosum
[13] = test system: Penicillium funiculosum
[14] = test system: Micrococcus luteus
[15] = test system: Saccharomyces cerevisiae
[16] = test system: Pseudomonas aeruginosa; settings: EP-A-0 749 960
[17] = test system: Alcaligenes faecalis
[18] = test system: Klebsiella pneumoniae spp. pneumoniae
[19] = test system: Penicillium chrysogenum
[20] = test system: Citrobacter freundii
[21] = test system: Aspergillus niger; settings: EP-A-0 749 960
[22] = test system: Mucor rouxii
[23] = test system: Zygosaccharomyces rouxii
[24] = test system: Arthrobacter oxydans
[25] = animals
[26] = test system: Candida albicans; settings: EP-A-0 749 960
[27] = test system: Aureobasidium pullulans
[28] = test system: Enterobacter aerogenes
[29] = test system: Bordetella bronchiseptica
[30] = test system: Proteus mirabilis

For `CCCCCCCCCCCC(=O)N[C@@H](CCCNC(=N)N)C(=O)OCC.Cl` [ethyl ester of N^α-lauroyl-L-arginine monohydrochloride], the tolerability [1] is given as “well tolerated”, the efficacy against bacteria [2] is given as “efficaceous” and the efficacy against yeasts [3] is given as “efficaceous”. For the same compound, the efficacy against fungi [4] was “efficaceous”, the efficacy against microorganism [5] was “proven” and the efficacy against bacteria [6] was “efficaceous”. The efficacy against bacteria [7] was “efficaceous”, the efficacy against microorganism [8] was “proven” and the efficacy against bacteria [9] was “efficaceous”. The efficacy against bacteria [10] was “efficaceous”, the efficacy against bacteria [11] was “efficaceous” and the efficacy against fungi [12] was “efficaceous”. The efficacy against fungi [13] was “efficaceous”, the efficacy against bacteria [14] was “efficaceous” and the efficacy against yeasts [15] was “efficaceous”. The efficacy against microorganism [16] was “proven”, the efficacy against bacteria [17] was “efficaceous” and the efficacy against bacteria [18] was “efficaceous”. For the same compound, the efficacy against fungi [19] was “efficaceous”, the efficacy against bacteria [20] was “efficaceous” and the efficacy against microorganism [21] was “proven”. For the same compound, the efficacy against fungi [22] was “efficaceous”, the efficacy against yeasts [23] was “efficaceous” and the efficacy against bacteria [24] was “efficaceous”. For the same compound, the tolerability [25] was “well tolerated”, the efficacy against microorganism [26] was “proven” and the efficacy against fungi [27] was “efficaceous”. For the same compound, the efficacy against bacteria [28] was “efficaceous”, the efficacy against bacteria [29] was “efficaceous” and the efficacy against bacteria [30] was “efficaceous”.
